The target in assay [1] is T1, Heat shock protein HSP90 (Homo sapiens) (UniProt P07900+P08238). In words: Inhibition of HSP90 in human MCF7 cells assessed as cell cycle arrest by measuring accumulation at Sub-G1 phase at 5 uM measured after 24 hrs by RNaseA/propidium iodide staining based flow cytometric analysis (reference value: 3.75 %). More on the design: scale not given: the % may be the effect or the level left. A general note: Flow cytometry measures light scatter and fluorescence of single cells or particles in a stream.

Assay [2] addresses T1, Heat shock protein HSP90 (Homo sapiens). As to the kind of experiment: Inhibition of HSP90 in human MCF7 cells assessed as cell cycle arrest by measuring accumulation at G2/M phase at 10 uM measured after 24 hrs by RNaseA/propidium iodide staining based flow cytometric analysis (reference value: 25.08 %). Also on record: scale not given: the % may be the effect or the level left.

Assay [3] has the same target. In words: Inhibition of HSP90 in human MCF7 cells assessed as induction of apoptosis by measuring late apototic cells at 2.5 uM measured after 24 hrs by annexinV-FITC/propidium iodide staining based flow cytometry (reference value: 7.91 %). Also on record: scale not given: the % may be the effect or the level left. In kind it is cell-based.
For assay [4] the target is unchanged. In words: Inhibition of HSP90 in human MCF7 cells assessed as induction of apoptosis by measuring necrotic cells at 2.5 uM measured after 24 hrs by annexinV-FITC/propidium iodide staining based flow cytometry (reference value: 0.01 %). In kind it is cell-based. Also on record: scale not given: the % may be the effect or the level left.
The target is the same in assay [5]. As to the kind of experiment: Inhibition of HSP90 in human MCF7 cells assessed as induction of apoptosis by measuring live cells at 5 uM measured after 24 hrs by annexinV-FITC/propidium iodide staining based flow cytometry (reference value: 90.77 %). In kind it is cell-based. More on the design: scale not given: the % may be the effect or the level left.
The target is the same in assay [6]. In words: Inhibition of HSP90 in human MCF7 cells assessed as induction of apoptosis by measuring late apototic cells at 5 uM measured after 24 hrs by annexinV-FITC/propidium iodide staining based flow cytometry (reference value: 7.91 %). In kind it is cell-based. More on the design: scale not given: the % may be the effect or the level left.
For assay [7] the target is unchanged. As to the kind of experiment: Inhibition of HSP90 in human MCF7 cells assessed as induction of apoptosis by measuring live cells at 10 uM measured after 24 hrs by annexinV-FITC/propidium iodide staining based flow cytometry (reference value: 90.77 %). In kind it is cell-based. Also on record: scale not given: the % may be the effect or the level left.
Assay [8] shares this target. In words: Inhibition of HSP90 in human MCF7 cells assessed as induction of apoptosis by measuring early apototic cells at 10 uM measured after 24 hrs by annexinV-FITC/propidium iodide staining based flow cytometry (reference value: 1.31 %). The assay is classed as cell-based. Also on record: scale not given: the % may be the effect or the level left.
Assay [9] has the same target. As to the kind of experiment: Inhibition of HSP90 in human MCF7 cells assessed as induction of morphological changes by measuring membrane blebbing at 2.5 to 10 uM by acridine orange/ethidium bromide staining based fluorescence microscopy analysis. In kind it is cell-based. Particulars: dose microM 2.5-10.
For assay [10] the target is unchanged. As to the kind of experiment: Inhibition of HSP90 in human MCF7 cells assessed as induction of nuclear morphological changes by measuring horse shoe shaped nuclei formation at 2.5 to 10 uM by DAPI staining based fluorescence microscopy analysis. The assay is classed as cell-based. Particulars: dose microM 2.5-10.
Assay [11] has the same target. In words: Inhibition of HSP90 in human MCF7 cells assessed as induction of nuclear morphological changes by measuring nuclear fragmentation at 2.5 to 10 uM by DAPI staining based fluorescence microscopy analysis. The assay is classed as cell-based. Particulars: dose microM 2.5-10.
Assay [12] shares this target. As to the kind of experiment: Inhibition of HSP90 in human MCF7 cells assessed as induction of mitochondrial membrane potential loss by measuring cell population with mitochondrial membrane potential collapse at 2.5 uM after 24 hrs by JC1 staining-based flow cytometry analysis (reference value: 6.53 %). Also on record: scale not given: the % may be the effect or the level left.

Assay [13] has the same target. As to the kind of experiment: Inhibition of HSP90 in human MCF7 cells assessed as induction of mitochondrial membrane potential loss by measuring cell population with mitochondrial membrane potential collapse at 5 uM after 24 hrs by JC1 staining-based flow cytometry analysis (reference value: 6.53 %). Also on record: scale not given: the % may be the effect or the level left.

In the case of `Nc1nc(-c2ccc(Br)cc2)cc(-c2cn(-c3ccc(Cl)cc3)nc2-c2ccc([N+](=O)[O-])cc2)n1`, the Activity in assay [1] was found to be 16.7%; in assay [2], 20.1%; in assay [3] it was 10.1%; in [4], 0.07%; in assay [5] it was 77.4%; in [6] it was 18.6%. Moreover, the Activity stood at 62.3% in [7], 4.11% in assay [8], 12.7% in [12] and 21.8% in assay [13]. For the same molecule, the inhibition entry in assay [9], in assay [10] and in [11] was “Dose-dependent effect” in each case.

(Values after ChEMBL document CHEMBL4725367, “Novel anticancer Hsp90 inhibitor disubstituted pyrazolyl 2-aminopyrimidine compound 7t induces cell cycle arrest and apoptosis via mitochondrial pathway in MCF-7 cells” (Bioorg Med Chem Lett, 2020).)
